Results taken from patent publication US8598132B2, “Glycosylated indolocarbazoles, method for obtaining same and uses thereof” (Universidad de Oviedo, priority 2008, dated 2013).

Target: T1, Chk1 (Homo sapiens, UniProt O14757)
T1 construct: purchased Carna Biosciences
T1 sequence (O14757 1-476): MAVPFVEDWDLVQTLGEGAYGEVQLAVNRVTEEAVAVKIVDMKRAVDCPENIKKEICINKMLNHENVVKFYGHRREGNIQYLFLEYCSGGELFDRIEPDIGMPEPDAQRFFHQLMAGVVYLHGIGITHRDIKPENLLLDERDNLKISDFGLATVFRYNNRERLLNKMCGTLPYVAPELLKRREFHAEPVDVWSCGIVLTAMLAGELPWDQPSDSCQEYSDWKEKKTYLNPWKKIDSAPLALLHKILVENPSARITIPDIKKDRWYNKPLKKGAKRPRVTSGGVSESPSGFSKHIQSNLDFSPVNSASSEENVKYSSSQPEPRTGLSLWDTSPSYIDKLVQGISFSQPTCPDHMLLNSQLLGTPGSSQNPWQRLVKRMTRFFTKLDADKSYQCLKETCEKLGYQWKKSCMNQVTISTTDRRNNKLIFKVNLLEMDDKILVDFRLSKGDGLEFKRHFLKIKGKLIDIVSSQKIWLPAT
Experiment: LabChip (Caliper) kinase assay, Chk1
Type: biochemical
Conditions: for inhibition at 0.01 µM: compound at 10 nM; for inhibition at 0.01 µM / inhibition at 0.1 µM: read-out: remaining kinase activity (in %) / percentage of inhibition; for inhibition at 0.1 µM: compound at 100 nM; for IC50: ATP at Km, read-out: CI50 (the source's name)
Protocol: The analysis of kinase activity described here was performed using LabChip (Caliper Life Sciences), specifically the Caliper LC3000 and the EZ Reader II instruments.
The kinase assay used measures the conversion of a fluorescent peptide (substrate) to a phosphorylated product. The reaction mixture, in a microplate well, is introduced by a capillary in a chip where the non-phosphorylated substrate and the phosphorylated product are separated by […]. The intensity of the fluorescent signal over time is related to the reaction progress. The phosphorylated product migrates quicker than the non-phosphorylated substrate and the signals of the two forms of the peptide appear as differentiated peaks. The Caliper determines the peak height and calculates the ratio of product to the peak sum (P/(P+S)). This value is used to compare wells with compounds and wells with controls and thus determine the % of inhibition for the given product.
The followings kinases were used for the enzymatic inhibition studies, between brackets the value of the Michaelis-Menten constant, Km, of the ATP (Adenosine triphosphate) for each kinase, in μM: obtained from Carna Biosciences: MAPKAPK2 (4.6), AurA (3.6), AurB (5), PKCζ (3.8), RSK1 (23.3), PRAK (5), Erk1 (33.4), PKD2 (32.1), CK1d (16.3), CHK1 (33), ABL (61.7), FYN (36), LYNa (17), CHK2 (57.8), MET (79.5), LCK (28.5), SRC (38), GSK3β (7.3), Erk2 (62.1), PKACα (1.7), AKT2 (186.1), INSR (871.8), p38a (396.5), AKT1(48), MSK1 (21.2), PKCβ2 (84.8), ROCK2 (3.3), PIM2 (4.9), AMPK (38.6), KDR (164.8), IRAK4 (196.5), SGK1 (121.8), SYK (33.5); obtained from Invitrogen: CDK2 (57.6), BTK (123), HGK (80); obtained from Upstate: MST2 (36.6), PKGα (16), PAK2 (1.9), IGF1R (320), FGFR1 (171), MARK1 (33), CAMK2δ (22.4), c-TAK1 (66), DYRK1a (18.1), CaMK4 (3.9), FLT3 (350), c-Raf (6.2), P70S6K (95).
The compounds were dissolved in 100% DMSO and were diluted at 25 times the final concentration desired for the assay. In the case of the determination of Cl50, serial dilutions were made to reach eight concentrations and give rise to the inhibition curve. 1 μL of each concentration is transferred, in duplicate to a 384-well microplate. 12 μL of enzymatic buffer is added to each well containing purified kinase (several suppliers as indicated above), 100 mM HEPES, pH 7.5, 1 mM DTT (Calbiochem), 0.002% Brij-35 (Sigma) and also in presence of 10 mM MgCl2 as cofactor, except for INSR and IRAK4 wherein 10 mM MnCl2 is used instead of MgCl2. For the kinases CAMK26 and CAMK4, 1 mM CaCl2 and 6.7 μg/mL of calmodulin are also added. For KDR kinase, 0.05% of the CHAPSO detergent is added. For the c-Raf kinase, 10 mM MnCl2 is added. For PKCβ2 0.02 μg/mL of PS/PMA is added. For PKGα se 10 μM of cGMP (cyclic guanosine monophosphate) is added. The compound and the enzyme are left for 15 minutes preincubation and, then, the following are added to each well: 12 μL of peptide buffer/ATP containing 100 mM HEPES, pH 7.5, 1.5 μM peptide marker with fluorescein (specific for the corresponding kinase), ATP (at concentration KM), and 0.002% Brij-35 to start the reaction. Generally, the reactions are incubated for 1-1.5 h at ambient temperature to obtain an adequate conversion (15-40%) of the peptide to the phosphorylated product. The reactions were ended by the addition of 45 μL of buffer containing 0 mM EDTA. The microplates were read by the LabChip 3000 using a 12-channel LabChip. The P/(P+S) values were obtained as described above and the CI50 curves were generated using XIfit.
Table 9a has the 0150 data obtained in pairs of compound-kinase selected from the compounds of formula (VII), (VIII), (IX), (XVI), (XVII) and (XVIII) after taking inhibition measurements at 100 nM and 10 nM. Those couples that provide >70% of inhibition at 10 nM were consider for measuring its IC50. […]

C[C@H]1O[C@@H](n2c3ccccc3c3c4c(c5c6ccccc6[nH]c5c32)CNC4=O)C[C@@H](O)[C@@H]1O [formula (XV), N^13-1′-β-D-olivosyl-k252c]
inhibition at 0.01 µM: 4%
inhibition at 0.1 µM: 20%

C[C@]12O[C@H](C[C@@H](O)[C@H]1O)n1c3ccccc3c3c4c(c5c6ccccc6n2c5c31)CNC4=O [formula (XVIII), N^12-5′(S)-N^13-1′-(R)-L-digitoxosyl-k252c]
IC50: > 10 nM

C[C@]12O[C@H]([C@H](O)[C@H](O)[C@H]1O)n1c3ccccc3c3c4c(c5c6ccccc6n2c5c31)C(=O)NC4=O [formula (VII), N^12-5′(S)-N^13-1′-(R)-L-rhamnosylarcyriaflavin]
IC50: 1 nM

C[C@]12O[C@H]([C@H](O)[C@H](O)[C@H]1O)n1c3ccccc3c3c4c(c5c6ccccc6n2c5c31)CNC4=O [formula (XVI), N^12-5′(S)-N^13-1′-(R)-L-rhamnosyl-k252c]
IC50: 2.4 nM

C[C@@H]1O[C@@H](n2c3ccccc3c3c4c(c5c6ccccc6[nH]c5c32)C(=O)NC4=O)C[C@H](O)[C@H]1O [formula (IV), N^13-1′-β-L-olivosylarcyriaflavin]
inhibition at 0.01 µM: 5%
inhibition at 0.1 µM: 35%

C[C@H]1O[C@@H](n2c3ccccc3c3c4c(c5c6ccccc6[nH]c5c32)C(=O)NC4=O)C[C@@H](O)[C@@H]1O [formula (VI), N^13-1′-β-D-olivosylarcyriaflavin]
inhibition at 0.01 µM: 2%
inhibition at 0.1 µM: 50%

C[C@@H]1O[C@@H](n2c3ccccc3c3c4c(c5c6ccccc6[nH]c5c32)CNC4=O)C[C@@H](O)[C@H]1O [formula (XIV), N^13-1′-β-L-digitoxosyl-k252c]
inhibition at 0.01 µM: 6%
inhibition at 0.1 µM: 46%

C[C@@H]1O[C@@H](n2c3ccccc3c3c4c(c5c6ccccc6[nH]c5c32)CNC4=O)C[C@H](O)[C@H]1O [formula (XIII), N^13-1′-β-L-olivosyl-k252c]
inhibition at 0.01 µM: 1%
inhibition at 0.1 µM: 27%

C[C@@H]1O[C@@H](n2c3ccccc3c3c4c(c5c6ccccc6[nH]c5c32)C(=O)NC4=O)C[C@@H](O)[C@H]1O [formula (V), N^13-1′-β-L-digitoxosylarcyriaflavin]
inhibition at 0.01 µM: 45%
inhibition at 0.1 µM: 81%

C[C@@H]1O[C@@H](n2c3ccccc3c3c4c(c5c6ccccc6[nH]c5c32)C(=O)NC4=O)[C@H](O)[C@H](O)[C@H]1O [formula (III), N^13-1′-β-L-rhamnosylarcyriaflavin]
inhibition at 0.01 µM: -3%
inhibition at 0.1 µM: 15%

C[C@@H]1O[C@@H](n2c3ccccc3c3c4c(c5c6ccccc6[nH]c5c32)CNC4=O)[C@H](O)[C@H](O)[C@H]1O [formula (XII), N^13-1′-β-L-rhamnosyl-k252c]
inhibition at 0.01 µM: 2%
inhibition at 0.1 µM: 8%

C[C@]12O[C@H](C[C@H](O)[C@H]1O)n1c3ccccc3c3c4c(c5c6ccccc6n2c5c31)C(=O)NC4=O [formula (VIII), N^12-5′(S)-N^13-1′-(R)-L-olivosylarcyriaflavin]
IC50: 4.9 nM
